How the values were obtained:
Type in all cases: in vivo
[1] = system: Portulaca oleracea; test: Field trial, post-emergence, visual scoring; conditions: alone
Description: (§1) The tests were conducted outdoors (plot trials, 10 m^2 per plot, 2 repetitions, spray application with 200-300 liters of water per hectare). Crops and broad-leaved weeds/weed grasses were sown under customary field conditions. In addition, a natural weed flora also appeared. Application was by the post-emergence method. The application rates of the herbicidally active compounds applied on their own or in combinations are likewise shown in the tables below. Evaluations were by visual scoring (using a 0-100% scale) after application by comparison of treated and untreated test variants.
(§2) The abbreviations denote: • a.i.=active ingredient • E^C=expected value according to Colby (E^C=A+B−A×B100) • Δ=difference (%) of the measured value to the expected value (%) (measured value minus expected value)
(§3) Evaluation: • measured value E is greater than E^C:→synergism (+Δ) • measured value E equals E^C:→additive effect • measured value E is smaller than E^C:→antagonism (−Δ)

[2] = system: Brachiaria platyphylla; test: Greenhouse trial, post-emergence, visual herbicidal effect
Description: (§4) The weed seeds were sown in pots (diameter 8 cm) with sandy loam soil and germinated under optimum conditions. The herbides were applied by the post-emergence method onto the pots with the cultures, at a spray volume of 300 I/ha. The herbicides were applied on their own and in combination. The trial was conducted in a greenhouse under optimum growth conditions. The herbicidal effects were assessed visually by comparison of untreated and treated plants. The percentages mean: 0%=no effects, 100%=the plants die off completely). The percentages are used to calculate interactions between individual treatments and combination treatment according to S. R. Colby, Weeds 15, pages 20 to 22 (1967).
as §2, §3

[3] = system: Setaria viridis; test: as above
Description: as §4, §2, §3

[4] = system: Veronica hederifolia; test: Field trial, post-emergence, visual scoring; conditions: alone, 25 g of a.i./ha
Description: as §1, §2, §3

[5] = system: Digitaria sanguinalis; test: Greenhouse trial, post-emergence, visual herbicidal effect; conditions: alone
Description: as §4, §2, §3

[6] = system: Polygonum convolvulus; test: as above; conditions: alone
Description: as §4, §2, §3

[7] = system: Xanthium strumarium; test: as above; conditions: alone
Description: as §4, §2, §3

[8] = system: Ambrosia artemisiifolia; test: as above; conditions: alone
Description: as §4, §2, §3

[9] = system: Bidens pilosa; test: as above
Description: as §4, §2, §3

[10] = system: Euphorbia heterophylla; test: Field trial, post-emergence, visual scoring
Description: as §1, §2, §3

[11] = system: Centaurea cyanis; test: Greenhouse trial, post-emergence, visual herbicidal effect; conditions: alone
Description: as §4, §2, §3

[12] = system: Papaver rhoeas; test: as above; conditions: alone
Description: as §4, §2, §3

[13] = system: Avena fatua; test: as above; conditions: Table 5-49, greenhouse, alone, 4 g of a.i./ha
Description: as §4, §2, §3

[14] = system: Pharbitis purpurea; test: as above; conditions: alone
Description: as §4, §2, §3

[15] = system: Galium aparine; test: Field trial, post-emergence, visual scoring; conditions: Table 5-92, field, alone, 25 g of a.i./ha
Description: as §1, §2, §3

[16] = Table 5-97, greenhouse, alone, 0.5 g of a.i./ha
[17] = Table 5-103, greenhouse, 2 g of a.i./ha
[18] = Table 5-100, greenhouse, 1 g of a.i./ha
[19] = Table 5-101, greenhouse, 1 g of a.i./ha
[20] = Table 5-99, greenhouse, 1 g of a.i./ha
[21] = Table 5-91, greenhouse, 2 g of a.i./ha

CS(=O)(=O)c1ccc(C(=O)C2C(=O)CCCC2=O)c([N+](=O)[O-])c1 [mesotrione]
Activity [%] against Portulaca oleracea ([1]; Table 5-15, field, 25 g of a.i./ha): 0%

Cn1nnnc1NC(=O)c1ccc(S(C)(=O)=O)c(COCC(F)(F)F)c1Cl [A1-61]
Activity [%] against Brachiaria platyphylla ([2]; Table 5-64, greenhouse, alone, 6 g of a.i./ha): 0% | Activity [%] against Setaria viridis ([3]; Table 5-65, greenhouse, alone, 3 g of a.i./ha): 0% | Activity [%] against Veronica hederifolia ([4]; Table 5-66, field): 68%

COc1cc(OC)nc(NC(=O)NS(=O)(=O)c2ncccc2C(=O)N(C)C)n1 [nicosulfuron]
Activity [%] against Portulaca oleracea ([1]; Table 5-19, field, 20 g of a.i./ha): 30%

CCC(CC)Nc1c([N+](=O)[O-])cc(C)c(C)c1[N+](=O)[O-] [pendimethalin]
Activity [%] against Digitaria sanguinalis ([5]; Table 5-36, greenhouse, 50 g of a.i./ha): 0% | Activity [%] against Polygonum convolvulus ([6]; Table 5-37, greenhouse, 100 g of a.i./ha): 0% | Activity [%] against Polygonum convolvulus ([6]; Table 5-78, greenhouse, 100 g of a.i./ha): 0% | Activity [%] against Xanthium strumarium ([7]; Table 5-77, greenhouse, 100 g of a.i./ha): 0%

COC(=O)c1csc(C)c1S(=O)(=O)NC(=O)n1nc(OC)n(C)c1=O [thiencarbazone-methyl]
Activity [%] against Ambrosia artemisiifolia ([8]; Table 5-52, greenhouse, 0.25 g of a.i./ha): 0% | Activity [%] against Ambrosia artemisiifolia ([8]; Table 5-75, greenhouse, 0.25 g of a.i./ha): 0% | Activity [%] against Bidens pilosa ([9]; Table 5-96, greenhouse, alone, 0.5 g of a.i./ha): 40% | Activity [%] against Brachiaria platyphylla [2, 16]: 75%

COc1cc(OC)nc(NC(=O)NS(=O)(=O)c2cc(NC=O)ccc2C(=O)N(C)C)n1 [foramsulfuron]
Activity [%] against Portulaca oleracea ([1]; Table 5-14, field, 16 g of a.i./ha): 0%

CCS(=O)(=O)c1cccnc1S(=O)(=O)NC(=O)Nc1nc(OC)cc(OC)n1 [rimsulfuron]
Activity [%] against Portulaca oleracea ([1]; Table 5-20, field, 6 g of a.i./ha): 0%

Cc1c(C(=O)Nc2ncnn2C)ccc(S(C)(=O)=O)c1S(C)(=O)=O [A2-4]
Activity [%] against Ambrosia artemisiifolia ([8]; Table 5-102, greenhouse, 1 g of a.i./ha): 40% | Activity [%] against Xanthium strumarium [7, 17]: 10% | Activity [%] against Euphorbia heterophylla ([10]; Field, dosage 25 g of a.i./ha): 50%

CSc1c(C(F)(F)F)ccc(C(=O)Nc2nnnn2C)c1Cl [A1-85]
Activity [%] against Ambrosia artemisiifolia [8, 18]: 50% | Activity [%] against Xanthium strumarium [7, 19]: 25%

CCOc1c(S(C)(=O)=O)ccc(C(=O)Nc2nnnn2C)c1Cl [A1-69]
Activity [%] against Centaurea cyanis ([11]; Table 5-81, greenhouse, 4 g of a.i./ha): 65% | Activity [%] against Papaver rhoeas ([12]; Table 5-82, greenhouse, 4 g of a.i./ha): 10% | Activity [%] against Papaver rhoeas ([12]; Table 5-83, greenhouse, 4 g of a.i./ha): 10% | Activity [%] against Polygonum convolvulus ([6]; Table 5-84, greenhouse, 4 g of a.i./ha): 0% | Activity [%] against Euphorbia heterophylla ([10]; Table 5-85, field, alone, 25 g of a.i./ha): 20%

CCS(=O)(=O)c1ccc(C(=O)Nc2nnnn2C)c(Cl)c1OCCCOC [A1-83]
Activity [%] against Bidens pilosa ([9]; Table 5-96, greenhouse, alone, 1 g of a.i./ha): 35% | Activity [%] against Brachiaria platyphylla [2, 16]: 0%

COc1c(C(=O)Nc2nnnn2C)ccc(C(F)(F)F)c1SC [A1-44]
Activity [%] against Avena fatua [13]: 0% | Activity [%] against Centaurea cyanis ([11]; Table 5-50, greenhouse, 8 g of a.i./ha): 50% | Activity [%] against Euphorbia heterophylla ([10]; Table 5-51, field, alone, 25 g of a.i./ha): 58%

COc1c(C(=O)Nc2nnnn2C)ccc(C(F)F)c1S(C)(=O)=O [A1-80]
Activity [%] against Ambrosia artemisiifolia ([8]; Table 5-93, greenhouse, 1 g of a.i./ha): 25%

C/C(=N\NC(=O)Nc1cc(F)cc(F)c1)c1ncccc1C(=O)O [diflufenzopyr]
Activity [%] against Ambrosia artemisiifolia ([8]; Table 5-93, greenhouse, 25 g of a.i./ha): 50% | Activity [%] against Brachiaria platyphylla ([2]; Greenhouse, dosage 25 g of a.i./ha, Table 5-113): 60% | Activity [%] against Setaria viridis ([3]; Greenhouse, dosage 12.5 g of a.i./ha): 50%

CCS(=O)(=O)c1c(C(F)(F)F)ccc(C(=O)Nc2ncnn2C)c1Cl [A2-10]
Activity [%] against Bidens pilosa ([9]; Greenhouse, dosage 2 g of a.i./ha): 50% | Activity [%] against Brachiaria platyphylla ([2]; Greenhouse, dosage 1 g of a.i./ha, Table 5-110): 35% | Activity [%] against Brachiaria platyphylla ([2]; Greenhouse, dosage 2 g of a.i./ha, Table 5-109): 0%

bicyclopyrone
Activity [%] against Portulaca oleracea ([1]; Table 5-18, field, 25 g of a.i./ha): 23%

CCc1c(C(=O)Nc2nnnn2C)ccc(C(F)(F)F)c1SC [A1-33]
Activity [%] against Polygonum convolvulus ([6]; Table 5-44, greenhouse, 4 g of a.i./ha): 0% | Activity [%] against Setaria viridis ([3]; Table 5-43, greenhouse, alone, 2 g of a.i./ha): 75%

CCS(=O)(=O)c1ccc(C(=O)Nc2nnnn2C)c(Cl)c1C1=NOC(COC)C1 (stereo not shown) [A1-66]
Activity [%] against Ambrosia artemisiifolia ([8]; Table 5-75, greenhouse, 6 g of a.i./ha): 35% | Activity [%] against Veronica hederifolia ([4]; Table 5-76, field): 75%

Cc1c(C(=O)Nc2nnnn2C)ccc(S(C)(=O)=O)c1C1=NOCC1 [A1-24]
Activity [%] against Digitaria sanguinalis ([5]; Table 5-36, greenhouse, 6 g of a.i./ha): 50% | Activity [%] against Polygonum convolvulus ([6]; Table 5-37, greenhouse, 6 g of a.i./ha): 0%

Nc1c([N+](=O)[O-])ccc(Oc2ccccc2)c1Cl [aclonifen]
Activity [%] against Portulaca oleracea ([1]; Table 5-22, field, 1200 g of a.i./ha): 0%

CCSc1c(Br)ccc(C(=O)Nc2nnnn2C)c1C [A1-23]
Activity [%] against Ambrosia artemisiifolia ([8]; Table 5-29, greenhouse, 1 g of a.i./ha): 10% | Activity [%] against Ambrosia artemisiifolia ([8]; Table 5-32, greenhouse, 1 g of a.i./ha): 0% | Activity [%] against Bidens pilosa ([9]; Table 5-28, greenhouse, alone, 2 g of a.i./ha): 45% | Activity [%] against Bidens pilosa ([9]; Table 5-33, greenhouse, alone, 1 g of a.i./ha): 35% | Activity [%] against Digitaria sanguinalis ([5]; Table 5-35, greenhouse, 1 g of a.i./ha): 10% | Activity [%] against Pharbitis purpurea ([14]; Table 5-30, greenhouse, 1 g of a.i./ha): 45% | Activity [%] against Pharbitis purpurea ([14]; Table 5-34, greenhouse, 2 g of a.i./ha): 45% | Activity [%] against Setaria viridis ([3]; Table 5-27, greenhouse, alone, 2 g of a.i./ha): 50% | Activity [%] against Setaria viridis ([3]; Table 5-31, greenhouse, alone, 2 g of a.i./ha): 50%

CCn1nnnc1NC(=O)c1ccc(C)c([S+](C)[O-])c1Cl (stereo not shown) [A1-84]
Activity [%] against Pharbitis purpurea ([14]; Table 5-98, greenhouse, 2 g of a.i./ha): 30% | Activity [%] against Xanthium strumarium [7, 20]: 10%

COCc1cnc(C2=NC(C)(C(C)C)C(=O)N2)c(C(=O)O)c1 (stereo not shown) [imazamox]
Activity [%] against Ambrosia artemisiifolia [8, 21]: 10% | Activity [%] against Ambrosia artemisiifolia [8, 18]: 0% | Activity [%] against Ambrosia artemisiifolia ([8]; Table 5-102, greenhouse, 2 g of a.i./ha): 0% | Activity [%] against Bidens pilosa ([9]; Table 5-46, greenhouse, alone, 1 g of a.i./ha): 10% | Activity [%] against Bidens pilosa ([9]; Table 5-47, greenhouse, alone, 2 g of a.i./ha): 20% | Activity [%] against Bidens pilosa ([9]; Table 5-90, greenhouse, alone, 1 g of a.i./ha): 10% | Activity [%] against Brachiaria platyphylla ([2]; Table 5-45, greenhouse, alone, 2 g of a.i./ha): 10% | Activity [%] against Pharbitis purpurea ([14]; Table 5-98, greenhouse, 1 g of a.i./ha): 15% | Activity [%] against Xanthium strumarium [7, 20]: 0% | Activity [%] against Xanthium strumarium [7, 19]: 10% | Activity [%] against Xanthium strumarium [7, 17]: 0%

CC(C)c1ccc(NC(=O)N(C)C)cc1 [isoproturon]
Activity [%] against Centaurea cyanis ([11]; Table 5-81, greenhouse, 100 g of a.i./ha): 0% | Activity [%] against Papaver rhoeas ([12]; Table 5-82, greenhouse, 200 g of a.i./ha): 40% | Activity [%] against Papaver rhoeas ([12]; Table 5-83, greenhouse, 200 g of a.i./ha): 40% | Activity [%] against Polygonum convolvulus ([6]; Table 5-44, greenhouse, 200 g of a.i./ha): 0% | Activity [%] against Polygonum convolvulus ([6]; Table 5-84, greenhouse, 200 g of a.i./ha): 0% | Activity [%] against Setaria viridis ([3]; Table 5-43, greenhouse, alone, 200 g of a.i./ha): 10%

CCn1nnnc1NC(=O)c1ccc(C(F)F)c(SC)c1OC [A1-79]
Activity [%] against Ambrosia artemisiifolia [8, 21]: 30% | Activity [%] against Bidens pilosa ([9]; Table 5-90, greenhouse, alone, 2 g of a.i./ha): 20% | Activity [%] against Galium aparine [15]: 70%
